This note sets out measurements from DBAASP.

Among the test systems are Acinetobacter baumannii; Enterococcus faecalis; Enterococcus gallinarum; Pseudomonas aeruginosa; Raoultella terrigena; Bacillus megaterium Bm11; Staphylococcus capitis 1.
Experiment in all cases: ≥ marks a high value that may be exact or a test limit, other limits are often not marked, values filed in µg/mL are converted to µM
For assay [1], the system named is Aspergillus flavus KCTC 7375.
Assay [2] relates to Bacillus subtilis KCTC 3068.
The test system of assay [3] is Candida albicans KCTC 7121.
Assay [4] has as its system Escherichia coli KCTC 1682.
The subject of assay [5] is Fusarium oxysporum KCTC 6084.
Assay [6] concerns Pseudomonas aeruginosa KCTC 1637.
Assay [7] deals with Salmonella typhimurium KCTC 1926.
The test system of assay [8] is Serratia marcescens KCTC 1299.
The subject of assay [9] is Staphylococcus aureus KCTC 1621.
The subject of assay [10] is Streptococcus pyogenes KCTC 3096.
The test system of assay [11] is Trichosporon beigelii KCTC 7251.
For assay [12], the system named is Candida albicans ATCC 10231.
The test system of assay [13] is Escherichia coli ATCC 25922.
Assay [14] concerns Staphylococcus aureus Cowan 1.
Assay [15] has as its system Yersinia pseudotuberculosis YPIII.
The subject of assay [16] is Acinetobacter baumannii NM35.
Assay [17] relates to Acinetobacter baumannii NM8.
Assay [18] relates to Candida albicans ATCC 90028.
The test system of assay [19] is Enterococcus faecalis ATCC 29212.
Assay [20] has as its system Escherichia coli ATCC 25726.
Assay [21] has as its system Klebsiella pneumoniae ATCC 700603.
The test system of assay [22] is Pseudomonas aeruginosa ATCC 27853.
Assay [23] relates to Staphylococcus aureus 127/08.
Assay [24] deals with Staphylococcus aureus 145/08.
The subject of assay [25] is Staphylococcus aureus ATCC 25923.
The subject of assay [26] is Staphylococcus epidermidis RP62A/1.
For assay [27], the system named is Staphylococcus epidermidis RP62A.
Assay [28] deals with Staphylococcus epidermidis T6/19.
The subject of assay [29] is Stenotrophomonas maltophilia B32/1.
In assay [30] the test system is Stenotrophomonas maltophilia B5/5.
Assay [31] has as its system Acinetobacter baumannii NM124.
Assay [32] relates to Stenotrophomonas maltophilia B32/4.

In brackets after ≈: the same amount, converted by molar mass. Where only a bound is given, the exact number is not on record here.

A word on the MIC: it is the lowest concentration found to suppress growth. Lower therefore signals inhibition by little substance. Take `CSCC[C@H](NC(=O)[C@H](C)NC(C)=O)C(=O)N[C@H](C(=O)N[C@@H](CO)C(=O)N[C@@H](CO)C(=O)O)C(C)C` [AMVSS]: the MIC against Acinetobacter baumannii was 23.1 µM (≈ 12.4 µg/mL); against Enterococcus faecalis it was at least 46.2 µM; in the assay on Enterococcus gallinarum, 23.1 µM (≈ 12.4 µg/mL); against Pseudomonas aeruginosa, 23.1 µM (≈ 12.4 µg/mL); in the assay with Raoultella terrigena, 23.1 µM (≈ 12.4 µg/mL).
For the compound `CC[C@H](C)[C@H](NC(=O)[C@@H]1CCCN1C(=O)[C@H](CCCCN)NC(=O)[C@H](Cc1ccccc1)NC(=O)[C@H](CC(C)C)NC(=O)[C@H](Cc1cnc[nH]1)NC(=O)[C@H](CC(C)C)NC(=O)[C@H](C)NC(=O)[C@H](CCCCN)NC(=O)[C@H](CCCCN)NC(=O)[C@@H](N)Cc1ccccc1)C(=O)N[C@@H](CCCCN)C(=O)N[C@@H](CCCCN)C(=O)N[C@@H](Cc1ccccc1)C(=O)N[C@@H](CC(C)C)C(=O)N[C@@H](CCCCN)C(=O)N[C@@H](Cc1c[nH]c2ccccc12)C(=O)N[C@@H](CCCCN)C(N)=O` [FKKALHLFKPIKKFLKWK], the MIC was at least 50 µM in assay [1]; 0.78 µM (≈ 1.79 µg/mL) in assay [2]; at least 50 µM in assay [3]; 6.25 µM (≈ 14.4 µg/mL) in assay [4]; at least 50 µM in assay [5]; 1.56 µM (≈ 3.59 µg/mL) in assay [6]. Moreover, the MIC in assay [7] turned out to be 3.13 µM (≈ 7.2 µg/mL); in assay [8] it was 6.25 µM (≈ 14.4 µg/mL); in assay [9] it was 1.56 µM (≈ 3.59 µg/mL); in [10], 6.25 µM (≈ 14.4 µg/mL); in assay [11], 25 µM (≈ 57.5 µg/mL).
Take `CC[C@H](C)[C@H](NC(=O)CNC(=O)[C@H](CO)NC(=O)[C@H](C)NC(=O)[C@@H](NC(=O)[C@H](CCCN=C(N)N)NC(=O)CNC(=O)[C@@H](NC(=O)[C@H](CC(C)C)NC(=O)[C@@H]1CCCN1C(=O)[C@H](CC(C)C)NC(=O)[C@@H](N)Cc1ccccc1)[C@@H](C)CC)C(C)C)C(=O)N[C@@H](CC(C)C)C(N)=O` [FLPLIGRVASGIL]: the MIC with Bacillus megaterium Bm11 was at least 40 µM; in assay [12], over 40 µM; in assay [13], over 40 µM; in assay [14], at least 40 µM; against Staphylococcus capitis 1, at least 40 µM; in assay [15] it was at least 40 µM.
For the compound `CC[C@H](C)[C@H](N)C(=O)N[C@@H](CCCCN)C(=O)N[C@H](C(=O)N1CCC[C@H]1C(=O)N[C@@H](CO)C(=O)N[C@@H](Cc1ccccc1)C(=O)N[C@@H](Cc1ccccc1)C(=O)N[C@@H](CCCN=C(N)N)C(=O)N[C@@H](CC(N)=O)C(=O)N[C@H](C(=O)N[C@@H](CC(C)C)C(=O)N[C@@H](CCCCN)C(=O)N[C@@H](CCCCN)C(=O)N[C@H](C(=O)NCC(=O)N[C@@H](CCCCN)C(=O)N[C@@H](CCC(=O)O)C(=O)N[C@@H](C)C(=O)N[C@H](C(=O)N[C@@H](CO)C(=O)N[C@@H](CC(C)C)C(=O)N[C@H](C(=O)N[C@@H](C)C(=O)NCC(=O)N[C@@H](C)C(=O)N[C@@H](CC(C)C)C(=O)N[C@@H](CCCCN)C(=O)N[C@@H](CCC(N)=O)C(=O)N[C@@H](CO)C(=O)O)[C@@H](C)CC)C(C)C)C(C)C)[C@@H](C)CC)[C@@H](C)CC` [IKIPSFFRNILKKVGKEAVSLIAGALKQS], the MIC was 5 µM (≈ 15.8 µg/mL) in assay [16]; 10 µM (≈ 31.6 µg/mL) in assay [17]; at least 80 µM in assay [18]; 10 µM (≈ 31.6 µg/mL) in [19]; 10 µM (≈ 31.6 µg/mL) in assay [20]; 20 µM (≈ 63.1 µg/mL) in assay [21]. For the same compound, the MIC in assay [22] amounted to 20 µM (≈ 63.1 µg/mL); in [23], 5 µM (≈ 15.8 µg/mL); in [24], 10 µM (≈ 31.6 µg/mL); in [25], 7.07 µM (≈ 22.3 µg/mL); in assay [26], 1.25 µM (≈ 3.95 µg/mL); in assay [27] it was 2.5 µM (≈ 7.89 µg/mL). Further, the MIC in assay [28] was found to be 2.5 µM (≈ 7.89 µg/mL); in [29], 5 µM (≈ 15.8 µg/mL); in assay [30] it was 10 µM (≈ 31.6 µg/mL).
As for `CC[C@H](C)[C@@H]1NC(=O)[C@H](CCCCN)NC(=O)[C@@H](NC(=O)[C@H](C)NC(=O)[C@@H](NC(=O)[C@H](CC(C)C)NC(=O)[C@H](CC(=O)O)NC(=O)[C@@H](NC(=O)CNC(=O)[C@H](CC(C)C)NC(=O)[C@H](CCCCN)NC(=O)[C@H](C)NC(=O)[C@H](CC(C)C)NC(=O)[C@H](CC(=O)O)NC(=O)[C@H](CCCCN)NC(=O)CNC(=O)[C@H](CC(C)C)NC(=O)CNC(=O)[C@H](CCCCN)NC(=O)[C@H](CO)NC(=O)[C@H](C)NC(=O)[C@H](Cc2ccccc2)NC(=O)[C@@H](N)CCCCN)C(C)C)C(C)C)CSSC[C@@H](C(=O)O)NC(=O)[C@H](CCC(N)=O)NC(=O)[C@H](CCCCN)NC(=O)[C@H](CO)NC1=O` [KFASKGLGKDLAKLGVDLVACKISKQC], the MIC in assay [31] is at least 100 µM; in [17] it was at least 200 µM; in assay [20] it was at least 200 µM; in assay [23], at least 200 µM; in [25], over 200 µM; in [29], at least 100 µM. This compound gave an MIC in assay [32] of at least 50 µM.
